Experimental data taken from article PMC5760651, “Peptidomimetic blockade of MYB in acute myeloid leukemia” (Nature Communications, 2018).
Non-standard residues stand in square brackets, D forms with d. Residues, ends and D or L forms follow the SMILES beside them.

Test system: MYB:CBP/P300 complex
Assay: Co-immunoprecipitation of MYB:CBP/P300 complex from MV-411 cells
Type: binding, human
Details: 20 μM, immunoprecipitation with anti-MYB, 3 h, 4 °C, western blot
Procedure: Cells were lysed in RIPA buffer (Thermo Fisher) supplemented with a protease inhibitor mix comprised of AEBSF (0.5 mM concentration, Santa Cruz, SC-202041B), Bestatin (0.01 mM, Fisher/Alfa Aesar, J61106-MD), Leupeptin (0.1 mM, Santa Cruz, SC-295358B), and Pepstatin (0.001 mM, Santa Cruz, SC-45036A). Lysates were mechanically disrupted using Covaris S220 adaptive focused sonicator, according to the manufacturer’s instructions (Covaris, Woburn, CA). Lysates were cleared by centrifugation for 15 min at 18,000 × g and clarified lysates were quantified using the bicinchoninic acid assay (Pierce). Clarified lysates (20 μg of protein) were resolved using sodium dodecyl sulfate-polyacrylamide gel electrophoresis, and electroeluted using the Immobilon FL PVDF membranes (Millipore, Billerica, MA, USA). Membranes were blocked using the Odyssey Blocking buffer (Li-Cor, Lincoln, Nebraska, USA). The following primary antibodies were used as indicated: anti-MYB (1:1000, 05-175, Millipore), anti-CBP (1:1000, PA1-847, Invitrogen), anti-BCL2 (1:1000, 200-401-222, Rockland), anti-β actin (1:1000, 8H10D10, Cell Signaling). […] Blotted membranes were visualized using secondary antibodies conjugated to IRDye 800CW or IRDye 680RD (Goat anti-rabbit, 1:15,000, and goat anti-mouse, 1:15,000) and the Odyssey CLx fluorescence scanner, according to manufacturer’s instructions (Li-Cor, Lincoln, Nebraska, USA). […]

CC[C@@H](C)[C@@H](NC(=O)[C@@H](CCCCN)NC(=O)[C@@H](CCC(=O)O)NC(=O)[C@@H](CC(C)C)NC(=O)[C@@H](CCC(=O)O)NC(=O)[C@@H](CC(C)C)NC(=O)[C@@H](CC(C)C)NC(=O)[C@@H](CC(C)C)NC(=O)[C@@H](CCSC)NC(=O)[C@@H](CO)NC(=O)[C@H](NC(=O)[C@@H](CCC(=O)O)NC(=O)[C@@H](CC(N)=O)NC(=O)[C@@H](CCC(=O)O)NC(=O)[C@@H](CC(C)C)NC(=O)[C@@H](CCCCN)NC(C)=O)[C@H](C)O)C(=O)N[C@H](CCCNC(=N)N)C(=O)N[C@H](CCCCN)C(=O)NCC(=O)NCC(=O)N[C@H](CCCNC(=N)N)C(=O)N[C@H](CCCNC(=N)N)C(=O)N[C@H](CCCNC(=N)N)C(=O)N[C@H](CCC(N)=O)C(=O)N[C@H](CCCNC(=N)N)C(=O)N[C@H](CCCNC(=N)N)C(=O)N[C@H](CCCCN)C(=O)N[C@H](CCCCN)C(=O)N[C@H](CCCNC(=N)N)C(=O)NCC(=O)N[C@H](Cc1ccc(O)cc1)C(N)=O [MYBMIM] (Ac-[dK][dL][dE][dN][dE][dT][dS][dM][dL][dL][dL][dE][dL][dE][dK][dI][dR][dK]GG[dR][dR][dR][dQ][dR][dR][dK][dK][dR]G[dY]-NH2)
Dissociation of the cellular MYB:CBP/P300 complex: significant dissociation
